Test results from ChEMBL document CHEMBL5034037, “Synthesis, Characterization, and Preclinical Evaluation of a Small-Molecule Prostate-Specific Membrane Antigen-Targeted Monomethyl Auristatin E Conjugate” (J Med Chem, 2021).
Where “and” joins values, the source holds several entries; their conditions need not be identical. Equal entries are not always repeated. *1 amine or outer side, *2 acyl side, *3 side chain or, on linkers, in order; H or OH if unused. Where a SMILES comes first, the peptide text is derived from it. [ ]: non-standard residue; d: D form. The star is where a group is joined. GluureaLys(ε-3-ClBenzyl) = O=C(O)CC[C@H](NC(=O)N[C@@H](CCCCN(Cc1cccc(Cl)c1)*)C(=O)O)C(=O)O; Dolaproine = CO[C@@H]([C@@H]1CCCN1)[C@@H](C)C(=O)O; Dil = CC[C@H](C)[C@H](NC)[C@@H](CC(=O)O)OC; X1 = O=C(CCCc1cn(CCCN[*:1])nn1)[*:2]; PABC = O=C(OCc1ccc(N[*:1])cc1)[*:2]; X2 = C[C@@H](N*)[C@@H](O)c1ccccc1; Cit = NC(=O)NCCC[C@H](N)C(=O)O; Suc = O=C(CCC(=O)[*:2])[*:1]; NMeV = CN[C@H](C(=O)O)C(C)C; Ahx = NCCCCCC(=O)O

Key:
[1] = target: T1, Cytochrome P450 1A2 (Homo sapiens, UniProt P05177); assay: Drug metabolism assessed as human liver microsome CYP1A2-mediatd metabolism; assay type: ADME; details: microsomes
T1 sequence (P05177 whole entry): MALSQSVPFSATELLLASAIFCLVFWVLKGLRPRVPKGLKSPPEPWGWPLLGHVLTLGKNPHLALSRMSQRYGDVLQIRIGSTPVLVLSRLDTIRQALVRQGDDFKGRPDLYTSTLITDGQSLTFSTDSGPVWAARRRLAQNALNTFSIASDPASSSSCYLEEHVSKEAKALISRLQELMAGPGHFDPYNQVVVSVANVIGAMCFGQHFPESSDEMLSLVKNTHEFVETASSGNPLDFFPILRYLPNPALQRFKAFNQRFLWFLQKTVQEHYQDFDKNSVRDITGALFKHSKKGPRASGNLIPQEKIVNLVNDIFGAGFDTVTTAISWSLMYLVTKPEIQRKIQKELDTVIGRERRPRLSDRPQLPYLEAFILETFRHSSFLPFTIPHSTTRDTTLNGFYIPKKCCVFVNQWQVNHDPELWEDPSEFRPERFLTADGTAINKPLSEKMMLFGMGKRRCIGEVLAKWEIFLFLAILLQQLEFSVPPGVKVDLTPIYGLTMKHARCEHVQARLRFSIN

[2] = tested on: Salmonella typhimurium; assay: Mutagenecity in Salmonella typhimurium TA97 in presence of metabolic activation system at 100 ug/ml by Ames test; assay type: toxicity, organism-based; details: salmonella enterica subsp. enterica serovar typhimurium; dose 100 µg/ml
[3] = Volume of distribution in Wistar rat at 1.5 mg/kg, iv; assay type: ADME, organism-based; details: in vivo
[4] = Toxicity in rat assessed as morphological changes in thymus at 150 to 225 microg/kg, iv; assay type: tissue-based; details: in vivo, dose 150-225 µg/kg
[5] = Toxicity in rat assessed as morphological changes in lumen of trachea at 150 to 225 microg/kg, iv; assay type: tissue-based; details: in vivo, dose 150-225 µg/kg
[6] = Toxicity in rat assessed as morphological changes in testes at 150 to 225 microg/kg, iv; details: in vivo, dose 150-225 µg/kg
[7] = tested on: Salmonella typhimurium; assay: Mutagenecity in Salmonella typhimurium TA98 in presence of metabolic activation system at 1000 ug/ml by Ames test; assay type: toxicity, organism-based; details: salmonella enterica subsp. enterica serovar typhimurium; dose 1000 µg/ml
[8] = tested on: Salmonella typhimurium; assay: Mutagenecity in Salmonella typhimurium TA100 without metabolic activation system at 10000 ug/ml by Ames test; assay type: toxicity, organism-based; details: salmonella enterica subsp. enterica serovar typhimurium; dose 10000 µg/ml
[9] = AUC (0 to infinity) in rabbit at 0.81 mg/kg, iv; assay type: ADME, organism-based, Oryctolagus cuniculus; set-up: time infinity, route intravenous, dose 0.81 mg/kg; details: in vivo
[10] = Toxicity in rat assessed as morphological changes in heart muscle at 150 to 225 microg/kg, iv; assay type: tissue-based; details: in vivo, dose 150-225 µg/kg
[11] = Stability of the compound in human liver microsome; assay type: ADME; details: microsomes
[12] = Toxicity in rabbit assessed as morphological changes in adrenal gland at 81 to 122 microg/kg, iv; assay type: tissue-based, Oryctolagus cuniculus; details: in vivo, dose 81-122 µg/kg
[13] = tested on: Salmonella typhimurium; assay: Mutagenecity in Salmonella typhimurium TA98 in presence of metabolic activation system at 10 ug/ml by Ames test; assay type: toxicity, organism-based; details: salmonella enterica subsp. enterica serovar typhimurium; dose 10 µg/ml
[14] = tested on: Salmonella typhimurium; assay: Mutagenecity in Salmonella typhimurium TA100 in presence of metabolic activation system at 1 ug/ml by Ames test; assay type: toxicity, organism-based; details: salmonella enterica subsp. enterica serovar typhimurium; dose 1 µg/ml
[15] = target: T1, Cytochrome P450 1A2; assay: Inhibition of CYP1A2 in human liver microsome using phenacetin as substrate; assay type: ADME, microsomes
[16] = Toxicity in rabbit assessed as morphological changes in liver at 81 to 122 microg/kg, iv; assay type: tissue-based, Oryctolagus cuniculus; details: in vivo, dose 81-122 µg/kg
[17] = Toxicity in rabbit assessed as morphological changes in urinary bladder at 81 to 122 microg/kg, iv; set-up: species or system Oryctolagus cuniculus; details: in vivo, dose 81-122 µg/kg
[18] = Toxicity in rat assessed as morphological changes in mucosae of mouth at 150 to 225 microg/kg, iv; assay type: tissue-based; details: in vivo, dose 150-225 µg/kg
[19] = Toxicity in rabbit assessed as morphological changes in spleen at 81 to 122 microg/kg, iv; assay type: tissue-based, Oryctolagus cuniculus; details: in vivo, dose 81-122 µg/kg
[20] = Clearance in rabbit at 0.81 mg/kg, iv; assay type: ADME, organism-based, Oryctolagus cuniculus; details: in vivo
[21] = AUC (0 to t) in Wistar rat at 1.5 mg/kg, iv; assay type: ADME, organism-based; set-up: dose 1.5 mg/kg; details: in vivo
[22] = Toxicity in rabbit assessed as hemorrhage at 81 to 122 microg/kg, iv; set-up: species or system Oryctolagus cuniculus; details: in vivo, dose 81-122 µg/kg
[23] = tested on: Salmonella typhimurium; assay: Mutagenecity in Salmonella typhimurium TA100 in presence of metabolic activation system at 10 ug/ml by Ames test; assay type: toxicity, organism-based; details: salmonella enterica subsp. enterica serovar typhimurium; dose 10 µg/ml
[24] = Toxicity in rabbit assessed as morphological changes in cerebrum at 81 to 122 microg/kg, iv; assay type: tissue-based, Oryctolagus cuniculus; details: in vivo, dose 81-122 µg/kg
[25] = Toxicity in rat assessed as morphological changes in heart valve at 150 to 225 microg/kg, iv; assay type: tissue-based; details: in vivo, dose 150-225 µg/kg
[26] = Toxicity in rat assessed as morphological changes in bronchi at 150 to 225 microg/kg, iv; details: in vivo, dose 150-225 µg/kg
[27] = Toxicity in rat assessed as morphological changes in capsule of the kidney at 150 to 225 microg/kg, iv; assay type: tissue-based; details: in vivo, dose 150-225 µg/kg
[28] = Acute toxicity in iv dosed ICR mouse assessed as median mortality dose; assay type: organism-based; details: in vivo
[29] = tested on: Salmonella typhimurium; assay: Mutagenecity in Salmonella typhimurium TA97 without metabolic activation system at 10000 ug/ml by Ames test; assay type: toxicity, organism-based; details: salmonella enterica subsp. enterica serovar typhimurium; dose 10000 µg/ml
[30] = tested on: Salmonella typhimurium; assay: Mutagenecity in Salmonella typhimurium TA98 without metabolic activation system at 1000 ug/ml by Ames test; assay type: toxicity, organism-based; details: salmonella enterica subsp. enterica serovar typhimurium; dose 1000 µg/ml
[31] = Toxicity in rat assessed as morphological changes in loops of colon at 150 to 225 microg/kg, iv; assay type: tissue-based; details: in vivo, dose 150-225 µg/kg
[32] = Elimination rate constant in rabbit at 0.81 mg/kg, iv; assay type: ADME, organism-based, Oryctolagus cuniculus; details: in vivo
[33] = tested on: CWR22R; assay: Cytotoxicity against human 22Rv1 cells expressing PMSA measured using MTT assay; assay type: functional
[34] = Toxicity in rabbit assessed as morphological changes in thymus at 81 to 122 microg/kg, iv; assay type: tissue-based, Oryctolagus cuniculus; details: in vivo, dose 81-122 µg/kg
[35] = tested on: Salmonella typhimurium; assay: Mutagenecity in Salmonella typhimurium TA100 in presence of metabolic activation system at 1000 ug/ml by Ames test; assay type: toxicity, organism-based; details: salmonella enterica subsp. enterica serovar typhimurium; dose 1000 µg/ml
[36] = Antitumor activity against human 22Rv1 cells xenografted in mouse assessed as tumour growth inhibition at 0.3 mg/kg, ip daily treated for 5 days after 18 days of tumor implantation measured upto 15 days; assay type: functional, CWR22R; details: 22Rv1, ip, 120 h, time 5 day, read-out: TGI
[37] = target: Cathepsin B (Homo sapiens, UniProt P07858); assay: Stability of compound assessed as recombinant cathepsin B (unknown origin) mediated hydrolysis; assay type: ADME
[38] = tested on: Salmonella typhimurium; assay: Mutagenecity in Salmonella typhimurium TA100 without metabolic activation system at 1000 ug/ml by Ames test; assay type: toxicity, organism-based; details: salmonella enterica subsp. enterica serovar typhimurium; dose 1000 µg/ml
[39] = Toxicity in mouse assessed as change in body weight at 0.3 mg/kg, iv measured after 20 days; assay type: organism-based; details: in vivo, 480 h, time 20 day
[40] = Toxicity in rabbit assessed as morphological changes in lumen of trachea at 81 to 122 microg/kg, iv; assay type: tissue-based, Oryctolagus cuniculus; details: in vivo, dose 81-122 µg/kg
[41] = Chronic toxicity in rabbit assessed as increase in stomach weight at 5.4 microg/kg, iv; assay type: tissue-based, Oryctolagus cuniculus; details: in vivo, 0.0054 mg/kg, dose 5.4 µg/kg

**Q.** Which results are given for `CC[C@H](C)[C@@H]([C@@H](CC(=O)N1CCC[C@H]1[C@H](OC)[C@@H](C)C(=O)N[C@H](C)[C@@H](O)c1ccccc1)OC)N(C)C(=O)[C@@H](NC(=O)[C@H](C(C)C)N(C)C(=O)OCc1ccc(NC(=O)[C@H](CCCNC(N)=O)NC(=O)[C@@H](NC(=O)CCCc2cn(CCCNC(=O)[C@H](Cc3ccc(O)cc3)NC(=O)[C@H](Cc3ccccc3)NC(=O)CCC(=O)NCCCCCC(=O)N(CCCC[C@H](NC(=O)N[C@@H](CCC(=O)O)C(=O)O)C(=O)O)Cc3cccc(Cl)c3)nn2)C(C)C)cc1)C(C)C` ({GluureaLys(ε-3-ClBenzyl)-Ahx-Suc}-FY[X1]V[Cit][PABC][NMeV]V[Dil][Dolaproine]-X2)?
**A.** Drug metabolism [1]: Metabolite_Notdetected; Activity [2]: Non-Toxic; Vd [3]: 0.126 L/kg; Activity [4]: Non-Toxic; Activity [5]: Non-Toxic; Activity [6]: Non-Toxic; Activity [7]: Non-Toxic; Activity [8]: Non-Toxic; AUC(0-inf) [9]: 35 µg·h/mL; Activity [10]: Non-Toxic; Stability [11]: Unstable; Activity [12]: Non-Toxic; Activity [13]: Non-Toxic; Activity [14]: Non-Toxic; IC50 [15]: > 25 µM; Activity [16]: Non-Toxic; Activity [17]: Non-Toxic; Activity [18]: Non-Toxic; Activity [19]: Non-Toxic; clearance [20]: 0.024 L/h/kg; AUC(0-t) [21]: 76 µg·h/mL; Activity [22]: Toxic; Activity [23]: Non-Toxic; Activity [24]: Non-Toxic; Activity [25]: Non-Toxic; Activity [26]: Non-Toxic; Activity [27]: Non-Toxic; LD50 [28]: 6.3 mg/kg and 2.7 µmol/kg; Activity [29]: Non-Toxic; Activity [30]: Non-Toxic; Activity [31]: Non-Toxic; k el [32]: 4.72e-05 s⁻¹; CC50 [33]: 0.029 µM; Activity [34]: Non-Toxic; Activity [35]: Non-Toxic; inhibition in vivo at 0.3 mg/kg [36]: 77.4%; Stability [37]: Stable; Activity [38]: Non-Toxic; Activity [39]: Non-Toxic; Activity [40]: Non-Toxic; Activity [41]: Toxic
